Test results from PMC12859765, “Phosphatidylcholine with C26:0 moiety, a precursor of a diagnostic marker for X-ALD, is synthesized by LPLAT10/LPEAT2” (Journal of Lipid Research, 2025).

Molecular target: T1, LPLAT8/LPCAT1 (Homo sapiens, UniProt Q8NF37)
T1 construct: transiently expressed in HEK 293T; 100,000 g membrane fraction
T1 sequence (Q8NF37 1-534): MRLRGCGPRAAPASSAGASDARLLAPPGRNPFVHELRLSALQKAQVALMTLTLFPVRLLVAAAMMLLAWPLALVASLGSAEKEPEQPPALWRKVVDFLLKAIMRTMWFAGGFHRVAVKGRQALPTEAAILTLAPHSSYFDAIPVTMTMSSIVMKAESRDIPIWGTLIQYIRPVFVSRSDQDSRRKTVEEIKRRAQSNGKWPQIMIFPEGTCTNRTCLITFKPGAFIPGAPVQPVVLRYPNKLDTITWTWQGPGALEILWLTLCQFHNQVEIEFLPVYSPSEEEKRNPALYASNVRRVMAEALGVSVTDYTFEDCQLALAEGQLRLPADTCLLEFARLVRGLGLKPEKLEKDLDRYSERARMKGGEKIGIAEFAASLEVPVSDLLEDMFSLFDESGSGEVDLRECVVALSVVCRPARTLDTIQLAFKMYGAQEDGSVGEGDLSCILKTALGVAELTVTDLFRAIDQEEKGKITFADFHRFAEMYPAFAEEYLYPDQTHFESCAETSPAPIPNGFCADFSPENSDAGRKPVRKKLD
Experiment: LC-MS/MS acyltransferase assay, membrane fraction
Type: biochemical
Conditions: pH 7.4, 37 °C

Structure (SMILES) | LC-MS/MS acyltransferase assay, membrane fraction (donor C26:0-CoA 10 µM, LPC 20 µM, labelled compound) | LC-MS/MS acyltransferase assay, membrane fraction (10 µM acyl-CoA, acceptor 2-16:0-d31-LPC 20 µM)
CCCCCCCCCCCCCCCC(=O)O[C@H](CO)COP(=O)([O-])OCC[N+](C)(C)C [2-16:0-d31-LPC] | C26:0-CoA transfer activity was not significantly different between 2-acyl-LPC and 1-acyl-LPC | –
CCCCCCCCCCCCCCCCCCCCCCCCCC(=O)SCCNC(=O)CCNC(=O)[C@H](O)C(C)(C)COP(=O)(O)OP(=O)(O)OC[C@H]1O[C@@H](n2cnc3c(N)ncnc32)[C@H](O)[C@@H]1OP(=O)(O)O [C26:0-CoA] | – | LPLAT8/LPCAT1, which has very high homology with LPLAT10 in terms of amino acid sequence, showed slight activity
